# Experimental data from US6130248A, “Tricarboxylic acid-containing oxyalkyl esters and uses thereof” (Bar-ILAn University, priority 1996, dated 2000).
# Tests used:
# neoplastic cells = conditions: in vitro; cited from earlier work
# cancer = cancer patients; cited from earlier work
# [1] = tested on: c-myc in HL-60 promyelocytic leukemia; conditions: cited from earlier work
# IMR-32 (Neuroblastoma) = experiment: Clonogenicity of established tumor cell lines (soft agar); format: cell-based, human
# Procedure: (§1) Inhibition of tumor growth was tested using cell lines as follows: […]
# K562 (Erytholeukemia) = experiment: as above; format: cell-based, human
# Procedure: as §1
# LA1-5S (Neuroblastoma) = experiment: as above; format: cell-based, human
# Procedure: as §1
# [2] = tested on: LNCaP (Prostate Carcinoma); experiment: as above; format: cell-based, human
# Procedure: as §1
# [3] = tested on: MCF7-40F (Breast Carcinoma); experiment: as above; format: cell-based, human
# Procedure: as §1
# [4] = tested on: MCF7-WT (Breast Carcinoma); experiment: as above; format: cell-based, human
# Procedure: as §1
# NBAS-5 (Neuroblastoma) = experiment: as above; format: cell-based, human
# Procedure: as §1
# NBL-W-N (Neuroblastoma) = experiment: as above; format: cell-based, human
# Procedure: as §1
# PC3 (Prostate Carcinoma) = experiment: as above; format: cell-based, human
# Procedure: as §1
# SK-N-MC (Neuroblastoma) = experiment: as above; format: cell-based, human
# Procedure: as §1
# SK-N-SH (Neuroblastoma) = experiment: as above; format: cell-based, human
# Procedure: as §1
# SMS-KAN (Neuroblastoma) = experiment: as above; format: cell-based, human
# Procedure: as §1
# [5] = tested on: 53 primary tumor cell lines; experiment: Inhibition of clonogenicity of primary tumor cells; format: cell-based, human
# From the text: The tested tumor cells were from 11 non-small cell lung carcinomas, 10 breast carcinomas, 10 gastric carcinomas, 10 ovarian carcinomas, and 10 CNS tumors.
# [6] = tested on: established tumor cell lines; experiment: Clonogenicity of established tumor cell lines, all lines together; format: cell-based, human; conditions: all cell lines
# Procedure: as §1
# [7] = tested on: P3HR-1 EBV-positive lymphoma cells; experiment: [3H]-thymidine incorporation in EBV-positive lymphoma cells; format: cell-based, human; conditions: 72 hours
# Procedure: The effect of GOMB to AB was compared on EBV virus-associated tumors. EBV-positive cells from P3HR-1, a human lymphoma cell line, were incubated in growth medium with the specified concentration of GOMB, AB, ganciclovir (GC), or combination of these, for 72 hours, seeded in 96-well plates and pulsed with 1 μCi [^3 H]-thymidine/well during the last 16 hours of exposure to the compounds. Cells were harvested with a cell harvester, using glass microfiber filters. The incorporation of [^3 H]-thymidine was determined by retention of the acid insoluble fraction on filters and is expressed as CPM.
# [8] = tested on: Au565 breast carcinoma cells; experiment: Differentiation by lipid staining; format: cell-based, human; conditions: 10 μM
# From the text: Lipid staining and/or immunochemical staining of casein can be used as a marker for cellular differentiation of breast cancer cells (Bacus et al., Md. Carcin. 3:350-362, 1990). Casein detection can be done by histochemical staining of breast cancer cells using a human antibody to human casein as described by Cheung et al., J. Clin. Invest. 75:1722-1728,which is incorporated by reference in its entirety.
# In the case of the human breast carcinoma cell line Au565, 100%. Of the cells treated with 10 μM GOMB were positive for lipid staining whereas less than 1% of cells treated with the same concentration of AB were positive for lipid staining.
# CFPAC cells = experiment: SRB cell proliferation assay; format: cell-based
# Procedure: (§2) The inhibition of cell proliferation was measured in the indicated cancer cell lines using the sulforhoamine B (SRB) assay as described by Monks et al., J. Natl. Can. Inst. […] The SRB assay is used to screen for anti-cancer drugs.
# HL-60 cells [9] = experiment: SRB cell proliferation assay; format: cell-based; conditions: Homo sapiens; HL-60, SRB
# Procedure: as §2
# HT-29 cells = experiment: SRB cell proliferation assay; format: cell-based; conditions: Homo sapiens; HT-29, SRB
# Procedure: as §2
# MCF7 cells = experiment: SRB cell proliferation assay; format: cell-based; conditions: Homo sapiens
# Procedure: as §2
# [10] = tested on: cancer cell lines (CFPAC, HL-60, HT-29, MCF7); experiment: SRB cell proliferation assay, all cell lines together; format: cell-based
# Procedure: as §2
# HL-60 cells [11] = experiment: Induction of apoptosis (propidium iodide, flow cytometry); format: cell-based, human; conditions: 3 days
# Procedure: (§3) Apoptosis was measured as described by Telford et al., 1991, Cell Physiol. 24:447-459, in HL-60 cells and in the human erthroblastic cell line, K-562. Cells were treated with COMB for 3 days, fixed, stained with propidium iodine and analyzed by flow cytometrly for cell cycle distribution. […] This region consisted of cells with fragmented DNA.
# K-562 cells = experiment: as above; format: cell-based, human; conditions: 3 days
# Procedure: as §3
# MCF-7 cells (WAF) = experiment: Apoptosis in breast cancer cells, staining with WAF antibody / Western blot; format: cell-based, human
# Procedure: Induction of apoptosis by COMB and AB in MCF-7 cells was evaluated by staining cells with the WAF antibody and by Western blot analysis as described by Bacus et al., 1996, Oncogene 12:2535-2547.
# K562 cells (HbF) [12] = experiment: Hb-containing K562 cells by benzidine staining; format: cell-based, human; conditions: 5 days
# Procedure: (§4) Hb Measurement: HB was measured by benzidine staining of K562 cells after 5 days exposure to GOMB or AB according to the procedure of Fibach et al. (1989) [full cite]. Quantitative measurement of HbF in K562 culture or human erythroid cultures was determined by ion-exchange high pressure liquid chromatography (HPLC) as described by Fibach et al., Blood 81:1630-1635, 1993.
# (§5) K562 cells: K562 is an erthroblast cell line that develops some properties of erythroid, megakaryocyte or monocyte cells, depending on the specific stimulus, when induced by different chemicals. K562 cells were grown in RPMI with 10% FCS, supplemented with 2 mM glutamine. Cells were incubated at 37° C. in a humidified, 5% CO2 incubator.
# K562 cells (HbF) [13] = experiment: HbF synthesis in K562 cells (ion-exchange HPLC); format: cell-based, human
# Procedure: as §5
# [14] = tested on: erythroid cells from peripheral blood (HbF); experiment: HbF in cultured erythroid cells; format: cell-based; conditions: Homo sapiens; 0.2 mM, relative to untreated control cultures; read-out: increase of HbF in cultured erythroid cells
# Procedure: as §4
# Erythroid cells: Erythroid cells were isolated from peripheral blood of healthy individuals by the method of Fibach (1993).
# [15] = tested on: colon carcinoma, leukemia and retinoblastoma cell lines; conditions: in vitro; cited from earlier work
# [16] = Homo sapiens, IMR-32 clonogenicity
# [17] = Homo sapiens, K562 clonogenicity
# [18] = Homo sapiens, LA1-5S clonogenicity
# [19] = Homo sapiens, LNCaP clonogenicity
# [20] = Homo sapiens, MCF7-40F clonogenicity
# [21] = Homo sapiens, MCF7-WT clonogenicity
# [22] = Homo sapiens, NBAS-5 clonogenicity
# [23] = Homo sapiens, NBL-W-N clonogenicity
# [24] = Homo sapiens, PC3 clonogenicity
# [25] = Homo sapiens, SK-N-MC clonogenicity
# [26] = Homo sapiens, SK-N-SH clonogenicity
# [27] = Homo sapiens, SMS-KAN clonogenicity
compound,measurement,setting,value
"CCCC(=O)O [BA, Butyric acid]",differentiating and antiproliferative activity,neoplastic cells,potent differentiating and antiproliferative agent in a wide spectra of neoplastic cells
same,clinical antitumor efficacy,cancer,minimal or transient efficacy
same,expression of c-myc,[1],decrease in the expression
"CCCC(=O)OCOC(=O)CCCC(=O)O [GOMB, mono-(butyroyloxymethyl)glutarate]",IC50,IMR-32 (Neuroblastoma); [16],23 µM
same,IC90,IMR-32 (Neuroblastoma); [16],41 µM
same,AB/GOMB IC50 Ratio,IMR-32 (Neuroblastoma); IMR-32,38
same,AB/GOMB IC90 Ratio,IMR-32 (Neuroblastoma); IMR-32,87
same,IC50,K562 (Erytholeukemia); [17],43.3 µM
same,IC90,K562 (Erytholeukemia); [17],97 µM
same,AB/GOMB IC50 Ratio,K562 (Erytholeukemia); K562,17.8
same,AB/GOMB IC90 Ratio,K562 (Erytholeukemia); K562,68.6
same,IC50,LA1-5S (Neuroblastoma); [18],39 µM
same,IC90,LA1-5S (Neuroblastoma); [18],59 µM
same,AB/GOMB IC50 Ratio,LA1-5S (Neuroblastoma); LA1-5S,42
same,AB/GOMB IC90 Ratio,LA1-5S (Neuroblastoma); LA1-5S,45
same,IC50,[2]; [19],68.1 µM
same,IC90,[2]; [19],107 µM
same,AB/GOMB IC50 Ratio,[2]; LNCaP,11.4
same,AB/GOMB IC90 Ratio,[2]; LNCaP,63
same,IC50,[3]; [20],65.9 µM
same,IC90,[3]; [20],85.3 µM
same,AB/GOMB IC50 Ratio,[3]; MCF7-40F,12.4
same,AB/GOMB IC90 Ratio,[3]; MCF7-40F,37.3
same,IC50,[4]; [21],43.5 µM
same,IC90,[4]; [21],97 µM
same,AB/GOMB IC50 Ratio,[4]; MCF7-WT,34.5
same,AB/GOMB IC90 Ratio,[4]; MCF7-WT,97.7
same,IC50,NBAS-5 (Neuroblastoma); [22],16 µM
same,IC90,NBAS-5 (Neuroblastoma); [22],38 µM
same,AB/GOMB IC50 Ratio,NBAS-5 (Neuroblastoma); NBAS-5,23.2
same,AB/GOMB IC90 Ratio,NBAS-5 (Neuroblastoma); NBAS-5,343
same,IC50,NBL-W-N (Neuroblastoma); [23],25 µM
same,IC90,NBL-W-N (Neuroblastoma); [23],70 µM
same,AB/GOMB IC50 Ratio,NBL-W-N (Neuroblastoma); NBL-W-N,19.6
same,AB/GOMB IC90 Ratio,NBL-W-N (Neuroblastoma); NBL-W-N,44
same,IC50,PC3 (Prostate Carcinoma); [24],34.9 µM
same,IC90,PC3 (Prostate Carcinoma); [24],96.1 µM
same,AB/GOMB IC50 Ratio,PC3 (Prostate Carcinoma); PC3,6.48
same,AB/GOMB IC90 Ratio,PC3 (Prostate Carcinoma); PC3,46.6
same,IC50,SK-N-MC (Neuroblastoma); [25],16 µM
same,IC90,SK-N-MC (Neuroblastoma); [25],35 µM
same,AB/GOMB IC50 Ratio,SK-N-MC (Neuroblastoma); SK-N-MC,13.4
same,AB/GOMB IC90 Ratio,SK-N-MC (Neuroblastoma); SK-N-MC,37.5
same,IC50,SK-N-SH (Neuroblastoma); [26],28 µM
same,IC90,SK-N-SH (Neuroblastoma); [26],95 µM
same,AB/GOMB IC50 Ratio,SK-N-SH (Neuroblastoma); SK-N-SH,35.6
same,AB/GOMB IC90 Ratio,SK-N-SH (Neuroblastoma); SK-N-SH,37.8
same,IC50,SMS-KAN (Neuroblastoma); [27],27 µM
same,IC90,SMS-KAN (Neuroblastoma); [27],80 µM
same,AB/GOMB IC50 Ratio,SMS-KAN (Neuroblastoma); SMS-KAN,42
same,AB/GOMB IC90 Ratio,SMS-KAN (Neuroblastoma); SMS-KAN,26
same,IC50,[5]; Homo sapiens,34 µM
same,IC90,[5]; Homo sapiens,78 µM
same,AB/GOMB IC50 Ratio,[5]; average,13.9
same,AB/GOMB IC90 Ratio,[5]; average,27.3
same,"ratio of IC50 AB:IC50 GOMB, median",[6],28.5
same,"ratio of IC90 AB:IC90 GOMB, median",[6],53
same,"ratio of IC90 AB:IC90 GOMB, range",[6],26-342 fold
same,potency relative to AB in inhibiting EBV-positive lymphoma cells,[7],10 fold
same,cells positive for lipid staining,[8],100%
same,IC50,CFPAC cells,32.5 µM
same,IC90,CFPAC cells,41 µM
same,IC50,HL-60 cells [9],24.5 µM
same,IC90,HL-60 cells [9],53.6 µM
same,IC50,HT-29 cells,98.2 µM
same,IC90,HT-29 cells,123 µM
same,IC50,MCF7 cells,109 µM
same,IC90,MCF7 cells,218 µM
same,activity relative to AB by IC50 and IC90 values,[10],at least 100 fold
same,% apoptotic cells HL-60,HL-60 cells [11]; 5.0 μM,9.4%
same,% apoptotic cells HL-60,HL-60 cells [11]; 12.5 μM,14.9%
same,% apoptotic cells HL-60,HL-60 cells [11]; 25.0 μM,15.8%
same,% apoptotic cells HL-60,HL-60 cells [11]; 37.5 μM,36.3%
same,% apoptotic cells K-562,K-562 cells; 12.5 μM,9%
same,% apoptotic cells K-562,K-562 cells; 25.0 μM,18%
same,% Cells Expressing WAF,MCF-7 cells (WAF); 10 μM,36%
same,% Cells Expressing WAF,MCF-7 cells (WAF); 25 μM,34%
same,% Cells Expressing WAF,MCF-7 cells (WAF); 50 μM,79%
same,% Cells Expressing WAF,MCF-7 cells (WAF); 100 μM,81%
same,increase in percentage of cells expressing WAF,MCF-7 cells (WAF); versus 13% in the controls,623%
same,"concentration inducing apoptosis, lower than AB",MCF-7 cells (WAF); versus AB,10 fold
same,Percentage K562 Cells Containing HbF,K562 cells (HbF) [12]; 0.01 mM,6.3 ± 1.15%
same,Percentage K562 Cells Containing HbF,K562 cells (HbF) [12]; 0.05 mM,12.3 ± 5.3%
same,Percentage K562 Cells Containing HbF,K562 cells (HbF) [12]; 0.10 mM,29%
same,HbF Synthesis in K562 Cells,K562 cells (HbF) [13]; 0.01 mM,1.54 µg/mL
same,HbF Synthesis in K562 Cells,K562 cells (HbF) [13]; 0.05 mM,3.21 µg/mL
same,HbF Synthesis in K562 Cells,K562 cells (HbF) [13]; 0.10 mM,5.0 µg/mL
same,activation at 200 µM,[14],49.5%
"CCCC(=O)[O-].[Na+] [SB, sodium butyrate]",apoptosis,[15],produce apoptosis
